Measured values from US9295732B2, “Conjugated TLR7 and/or TLR8 and TLR2 polycationic agonists” (CAYLA, priority 2013, dated 2016).
Values joined by “and” are separate entries in the source; they are usually repeats but may differ in a detail not shown here. Identical values can stand only once.

Experiments:
[1] = molecular target: T1, murine TLR7 (Mus musculus, UniProt P58681); assay: HEK-Blue mTLR7 NF-κB/AP-1 SEAP reporter assay; type: cell-based; details: HEK-Blue mTLR7 cells, 10 μg/mL to 10 pg/ml, 24 hours, OD at 655 nm, FIG. 2
T1 construct: host or cells: HEK293 (HEK-Blue™ mTLR7)
T1 sequence (P58681 27-1050): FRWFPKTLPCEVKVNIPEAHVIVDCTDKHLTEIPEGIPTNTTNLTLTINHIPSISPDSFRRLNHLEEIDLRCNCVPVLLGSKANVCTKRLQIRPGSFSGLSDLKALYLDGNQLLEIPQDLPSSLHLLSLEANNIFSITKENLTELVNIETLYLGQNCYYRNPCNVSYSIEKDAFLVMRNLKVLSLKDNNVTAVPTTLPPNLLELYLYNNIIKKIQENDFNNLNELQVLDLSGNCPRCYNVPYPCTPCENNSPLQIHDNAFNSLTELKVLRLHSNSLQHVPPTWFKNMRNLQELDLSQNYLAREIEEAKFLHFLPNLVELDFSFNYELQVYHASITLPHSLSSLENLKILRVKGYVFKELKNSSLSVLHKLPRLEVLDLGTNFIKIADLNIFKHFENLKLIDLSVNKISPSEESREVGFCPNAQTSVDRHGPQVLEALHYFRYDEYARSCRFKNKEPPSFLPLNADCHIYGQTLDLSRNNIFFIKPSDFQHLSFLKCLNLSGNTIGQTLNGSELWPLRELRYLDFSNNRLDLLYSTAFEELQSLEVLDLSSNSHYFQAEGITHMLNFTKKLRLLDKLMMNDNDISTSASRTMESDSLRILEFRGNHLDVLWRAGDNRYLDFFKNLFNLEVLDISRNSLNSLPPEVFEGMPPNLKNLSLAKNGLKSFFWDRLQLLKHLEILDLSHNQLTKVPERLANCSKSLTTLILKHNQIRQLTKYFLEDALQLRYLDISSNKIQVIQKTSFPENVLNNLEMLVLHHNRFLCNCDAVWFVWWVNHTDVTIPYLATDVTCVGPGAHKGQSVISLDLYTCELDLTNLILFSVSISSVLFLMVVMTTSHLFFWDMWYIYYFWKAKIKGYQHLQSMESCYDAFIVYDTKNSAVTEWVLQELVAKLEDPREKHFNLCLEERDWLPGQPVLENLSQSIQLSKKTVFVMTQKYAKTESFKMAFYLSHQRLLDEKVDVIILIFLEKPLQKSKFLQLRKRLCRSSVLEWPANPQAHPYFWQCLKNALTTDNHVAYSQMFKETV
Outline: (§1)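 HEK293 cells stably expressing the given TLR, or RAW 264.7-derived cells (50,000 or 100,000 cells/well respectively), carry an NF-κB/AP-1-inducible SEAP reporter. Conjugated TLR7-TLR2 agonists at final 10 μg/mL to 10 pg/ml, 24 h at 37° C. SEAP read colorimetrically as OD at 655 nm in detection medium.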

[2] = system: endogenous TLR2 and TLR7 in RAW-Blue™ Cells; assay: RAW-Blue Cells NF-κB/AP-1 SEAP reporter assay; type: cell-based, mouse; details: 24 hours, OD at 655 nm, FIG. 4
Outline: as §1

[3] = Nanoparticle (lipoplex) size by dynamic light scattering; details: 25° C., triplicate; for Mean Diameter: complexes with pDNA 3:24 (w:w), dynamic light scattering; for PDI: polydispersity index of complexes with pDNA 3:24 (w:w);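 on all read-outs here: lipoplexes of TLR7-TLR2 polyamine conjugates with plasmid DNA, formed over 30 min at room temperature in serum-free medium or 5% glucose, diameter in nm, PDI dimensionless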

Compound	ability to activate mTLR7 [1]	Mean Diameter [3]	PDI [3]	ability to activate endogenous TLR2 and TLR7 in RAW-Blue Cells [2]
CCCCCCCCCCCCCCCC(=O)OCC(CSC[C@H](N)C(=O)N[C@@H](CCC(=O)NCCCNCCCCNCCCN)C(=O)Nc1ccc(Cn2c(O)nc3c(N)nc(NCCCC)nc32)cc1)OC(=O)CCCCCCCCCCCCCCC (stereo partly drawn) [CL527, (6R,9S)-6,25-diamino-9-(4-((6-amino-2-(butylamino)-8-hydroxy-9H-purin-9-yl)methyl)phenylcarbamoyl)-7,12-dioxo-4-thia-8,13,17,22-tetraazapentacosane-1,2-diyl dipalmitate]	activate mTLR7	175.1 nm and 156.9 nm and 168.3 nm	0.253 and 0.239 and 0.258	activate endogenous TLR2 and TLR7
CCCCCCCCCCCCCCCC(=O)N[C@@H](CSCC(COC(=O)CCCCCCCCCCCCCCC)OC(=O)CCCCCCCCCCCCCCC)C(=O)N[C@@H](CO)C(=O)N[C@@H](CCCCN)C(=O)N[C@@H](CCCCN)C(=O)N[C@@H](CCCCN)C(=O)N[C@@H](CCCCN)C(=O)Nc1ccc(Cn2c(O)nc3c(N)nc(NCCCC)nc32)cc1 (stereo partly drawn) [CL534, ((6R,9S,12S,15S,18S,21S)-25-amino-21-(4-((6-amino-2-(butylamino)-8-hydroxy-9H-purin-9-yl)methyl)phenylcarbamoyl)-12,15,18-tris(4-aminobutyl)-9-(hydroxylmethyl)-7,10,13,16,19-pentaoxo-6-palmitamido-4-thia-8,11,14,17,20-pentaazapentacosane-1,2-diyl dipalmitate]	activate mTLR7	–	–	activate endogenous TLR2 and TLR7
(6S,9S,12S,15S,18S,21R)-6,25-diamino-21-(4-((6-amino-2-(butylamino)-8-hydroxy-9H-purin-9-yl)methyl)phenylcarbamoyl)-12,15,18-tris(4-aminobutyl)-9-(hydroxyl methyl)-7,10,13,16,19-pentaoxo-4-thia-8,11,14,17,20-pentaazapentacosane-1,2-diyl dipalmitate [CL413]	activate mTLR7	–	–	activate endogenous TLR2 and TLR7

Further lines, with some results ahead:

ability to activate mTLR7 [1]	Mean Diameter [3]	PDI [3]	Compound	ability to activate endogenous TLR2 and TLR7 in RAW-Blue Cells [2]
activate mTLR7	249.1 nm and 309.6 nm and 258.3 nm	0.303 and 0.354 and 0.372	CCCCCCCCCCCCCCCC(=O)OCC(CSC[C@H](N)C(=O)N[C@@H](COC(=O)c1ccc(Cn2c(O)nc3c(N)nc(NCCCC)nc32)cc1)C(=O)NCCCNCCCCNCCCN)OC(=O)CCCCCCCCCCCCCCC (stereo partly drawn) [CL514, (6R,9S)-6,23-diamino-9-((4-((6-amino-2-(butylamino)-8-hydroxy-9H-purin-9-yl)methyl)benzoyloxy)methyl)-7,10-dioxo-4-thia-8,11,15,20-tetraazatricosane-1,2-diyl dipalmitate]	activate endogenous TLR2 and TLR7
activate mTLR7	170.0 nm and 190.0 nm and 180.2 nm	0.226 and 0.230 and 0.237	CCCCCCCCCCCCCCCC(=O)OCC(CSC[C@H](N)C(=O)NCCCNCCCCNCCCNC(=O)CNC(=O)c1ccc(Cn2c(O)nc3c(N)nc(NCCCC)nc32)cc1)OC(=O)CCCCCCCCCCCCCCC (stereo partly drawn) [CL553, (20R)-20-amino-1-(4-((6-amino-2-(butylamino)-8-hydroxy-9H-purin-9-yl)methyl)phenyl)-1,4,19-trioxo-22-thia-2,5,9,14,18-pentaazapentacosane-24,25-diyl dipalmitate]	activate endogenous TLR2 and TLR7
